Measured values reported in ChEMBL document CHEMBL3885881, “DrugMatrix”.

Species: Rattus norvegicus
Test: DrugMatrix - Regimen: Daily Repeat
Format: toxicity, organism-based, Sprague-Dawley
Design: regimen Daily Repeat, gender Male, age 6-8 weeks
Conditions: in vivo, po, route oral GAVAGE, vehicle 100 % WATER; for ABSOLUTE BASOPHIL / ABSOLUTE EOSINOPHIL / ABSOLUTE LYMPHOCYTE / ABSOLUTE MONOCYTE / ABSOLUTE SEGMENTED NEUTROPHIL / BASOPHIL / EOSINOPHIL / ERYTHROCYTE COUNT / HEMATOCRIT / HEMOGLOBIN / LEUKOCYTE COUNT / LYMPHOCYTE / MEAN CORPUSCULAR HEMOGLOBIN / MEAN CORPUSCULAR HEMOGLOBIN CONCENTRATION / MEAN CORPUSCULAR VOLUME / MONOCYTE / NEUTROPHIL / NUCLEATED RED BLOOD CELLS / PLATELET COUNT: tissue Blood; for ALANINE AMINOTRANSFERASE / ALBUMIN / ALKALINE PHOSPHATASE / ASPARTATE AMINOTRANSFERASE / BLOOD UREA NITROGEN / CARBON DIOXIDE / CHLORIDE / CHOLESTEROL / CREATINE PHOSPHOKINASE / CREATININE / GLUCOSE / LACTATE DEHYDROGENASE / LIPASE / PHOSPHORUS / POTASSIUM / SODIUM / TOTAL BILIRUBIN / TOTAL PROTEIN / URIC ACID: tissue Plasma
[1] = 20 mg/kg, 72 h, dose level Low, time 3 day
[2] = 20 mg/kg, 120 h, dose level Low, time 5 day
[3] = 266 mg/kg, 72 h, dose level High, time 3 day
[4] = 266 mg/kg, 120 h, dose level High, time 5 day

## O=C(NCCN1CCOCC1)c1ccc(Cl)cc1 [MOCLOBEMIDE]
[1]
  ABSOLUTE BASOPHIL: 0 CELLS/uL
  ABSOLUTE EOSINOPHIL: 175 CELLS/uL
  ABSOLUTE LYMPHOCYTE: 12157.33 CELLS/uL
  ABSOLUTE MONOCYTE: 176.67 CELLS/uL
  ABSOLUTE SEGMENTED NEUTROPHIL: 691 CELLS/uL
  BASOPHIL: 0%
  EOSINOPHIL: 1%
  ERYTHROCYTE COUNT: 5.68 x10E6/uL
  HEMATOCRIT: 34.7%
  HEMOGLOBIN: 13.23 G/DL
  LEUKOCYTE COUNT: 13.2 x10E3/uL
  LYMPHOCYTE: 92.33%
  MEAN CORPUSCULAR HEMOGLOBIN: 23.33 pg
  MEAN CORPUSCULAR HEMOGLOBIN CONCENTRATION: 38.13 G/DL
  MEAN CORPUSCULAR VOLUME: 61.13 fL
  MONOCYTE: 1.33%
  NEUTROPHIL: 5.33%
  NUCLEATED RED BLOOD CELLS: 0 /100WBC
  PLATELET COUNT: 1220 x10E3/uL
  ALANINE AMINOTRANSFERASE: 54.33 u/L
  ALBUMIN: 4.07 G/DL
  ALKALINE PHOSPHATASE: 345 u/L
  ASPARTATE AMINOTRANSFERASE: 110.33 u/L
  BLOOD UREA NITROGEN: 17.33 mg/dL
  CARBON DIOXIDE: 23.67 mmol/L
  CHLORIDE: 102.67 MEQ/L
  CHOLESTEROL: 74 mg/dL
  CREATINE PHOSPHOKINASE: 379 u/L
  CREATININE: 0.2 mg/dL
  GLUCOSE: 174.67 mg/dL
  LACTATE DEHYDROGENASE: 728 u/L
  LIPASE: 9.67 u/L
  PHOSPHORUS: 14.07 mg/dL
  POTASSIUM: 6.99 MEQ/L
  SODIUM: 145.9 MEQ/L
  TOTAL BILIRUBIN: 0.2 mg/dL
  TOTAL PROTEIN: 5.7 G/DL
  URIC ACID: 2.03 mg/dL
[2]
  ABSOLUTE BASOPHIL: 0 CELLS/uL
  ABSOLUTE EOSINOPHIL: 0 CELLS/uL
  ABSOLUTE LYMPHOCYTE: 15547 CELLS/uL
  ABSOLUTE MONOCYTE: 117.33 CELLS/uL
  ABSOLUTE SEGMENTED NEUTROPHIL: 1669 CELLS/uL
  BASOPHIL: 0%
  EOSINOPHIL: 0%
  ERYTHROCYTE COUNT: 5.91 x10E6/uL
  HEMATOCRIT: 36.73%
  HEMOGLOBIN: 14.33 G/DL
  LEUKOCYTE COUNT: 17.33 x10E3/uL
  LYMPHOCYTE: 89.67%
  MEAN CORPUSCULAR HEMOGLOBIN: 24.33 pg
  MEAN CORPUSCULAR HEMOGLOBIN CONCENTRATION: 39 G/DL
  MEAN CORPUSCULAR VOLUME: 62.4 fL
  MONOCYTE: 0.67%
  NEUTROPHIL: 9.67%
  NUCLEATED RED BLOOD CELLS: 0 /100WBC
  PLATELET COUNT: 1391.67 x10E3/uL
  ALANINE AMINOTRANSFERASE: 57 u/L
  ALBUMIN: 4.1 G/DL
  ALKALINE PHOSPHATASE: 322.67 u/L
  ASPARTATE AMINOTRANSFERASE: 96.67 u/L
  BLOOD UREA NITROGEN: 15 mg/dL
  CARBON DIOXIDE: 27.33 mmol/L
  CHLORIDE: 101.33 MEQ/L
  CHOLESTEROL: 70.67 mg/dL
  CREATINE PHOSPHOKINASE: 318 u/L
  CREATININE: 0.17 mg/dL
  GLUCOSE: 156.67 mg/dL
  LACTATE DEHYDROGENASE: 488 u/L
  LIPASE: 9.67 u/L
  PHOSPHORUS: 13.7 mg/dL
  POTASSIUM: 6.88 MEQ/L
  SODIUM: 145.17 MEQ/L
  TOTAL BILIRUBIN: 0.17 mg/dL
  TOTAL PROTEIN: 5.83 G/DL
  URIC ACID: 1.63 mg/dL
[3]
  ABSOLUTE BASOPHIL: 0 CELLS/uL
  ABSOLUTE EOSINOPHIL: 201.33 CELLS/uL
  ABSOLUTE LYMPHOCYTE: 17920 CELLS/uL
  ABSOLUTE MONOCYTE: 282 CELLS/uL
  ABSOLUTE SEGMENTED NEUTROPHIL: 1130 CELLS/uL
  BASOPHIL: 0%
  EOSINOPHIL: 0.67%
  ERYTHROCYTE COUNT: 5.8 x10E6/uL
  HEMATOCRIT: 36.67%
  HEMOGLOBIN: 14.43 G/DL
  LEUKOCYTE COUNT: 19.53 x10E3/uL
  LYMPHOCYTE: 92%
  MEAN CORPUSCULAR HEMOGLOBIN: 24.93 pg
  MEAN CORPUSCULAR HEMOGLOBIN CONCENTRATION: 39.37 G/DL
  MEAN CORPUSCULAR VOLUME: 63.27 fL
  MONOCYTE: 1.33%
  NEUTROPHIL: 6%
  NUCLEATED RED BLOOD CELLS: 0 /100WBC
  PLATELET COUNT: 1228 x10E3/uL
  ALANINE AMINOTRANSFERASE: 45 u/L
  ALBUMIN: 4.27 G/DL
  ALKALINE PHOSPHATASE: 348 u/L
  ASPARTATE AMINOTRANSFERASE: 85.67 u/L
  BLOOD UREA NITROGEN: 15.67 mg/dL
  CARBON DIOXIDE: 27 mmol/L
  CHLORIDE: 102 MEQ/L
  CHOLESTEROL: 91.67 mg/dL
  CREATINE PHOSPHOKINASE: 407 u/L
  CREATININE: 0.2 mg/dL
  GLUCOSE: 135.33 mg/dL
  LACTATE DEHYDROGENASE: 202.33 u/L
  LIPASE: 9.67 u/L
  PHOSPHORUS: 12.33 mg/dL
  POTASSIUM: 5.98 MEQ/L
  SODIUM: 144.7 MEQ/L
  TOTAL BILIRUBIN: 0.13 mg/dL
  TOTAL PROTEIN: 5.67 G/DL
  URIC ACID: 1.47 mg/dL
[4]
  ABSOLUTE BASOPHIL: 0 CELLS/uL
  ABSOLUTE EOSINOPHIL: 57.67 CELLS/uL
  ABSOLUTE LYMPHOCYTE: 16939.67 CELLS/uL
  ABSOLUTE MONOCYTE: 123 CELLS/uL
  ABSOLUTE SEGMENTED NEUTROPHIL: 946.33 CELLS/uL
  BASOPHIL: 0%
  EOSINOPHIL: 0.33%
  ERYTHROCYTE COUNT: 6.33 x10E6/uL
  HEMATOCRIT: 38.47%
  HEMOGLOBIN: 15.33 G/DL
  LEUKOCYTE COUNT: 18.07 x10E3/uL
  LYMPHOCYTE: 93.67%
  MEAN CORPUSCULAR HEMOGLOBIN: 24.23 pg
  MEAN CORPUSCULAR HEMOGLOBIN CONCENTRATION: 39.87 G/DL
  MEAN CORPUSCULAR VOLUME: 60.77 fL
  MONOCYTE: 0.67%
  NEUTROPHIL: 5.33%
  NUCLEATED RED BLOOD CELLS: 0 /100WBC
  PLATELET COUNT: 1501 x10E3/uL
  ALANINE AMINOTRANSFERASE: 44 u/L
  ALBUMIN: 4.3 G/DL
  ALKALINE PHOSPHATASE: 312.33 u/L
  ASPARTATE AMINOTRANSFERASE: 75.67 u/L
  BLOOD UREA NITROGEN: 16 mg/dL
  CARBON DIOXIDE: 26 mmol/L
  CHLORIDE: 100.67 MEQ/L
  CHOLESTEROL: 75.67 mg/dL
  CREATINE PHOSPHOKINASE: 226.33 u/L
  CREATININE: 0.15 mg/dL
  GLUCOSE: 155.33 mg/dL
  LACTATE DEHYDROGENASE: 246.67 u/L
  LIPASE: 10.33 u/L
  PHOSPHORUS: 12.43 mg/dL
  POTASSIUM: 6.84 MEQ/L
  SODIUM: 143.43 MEQ/L
  TOTAL BILIRUBIN: 0.17 mg/dL
  TOTAL PROTEIN: 6.2 G/DL
  URIC ACID: 2.3 mg/dL
